“And” between values parts separate entries of the source, which are not always exact repeats. Equal entries are not always repeated. Inconclusive results and toxic doses are left out.
Tested on: BDF1 mice, B16 melanoma ip, median survival T/C
Experiment: NCI In Vivo Anticancer Drug Screen. Data for tumor model B16 Melanoma (intraperitoneal) in B6D2F1 (BDF1) mice
Conditions: endpoint: median survival time, higher = longer survival
In short: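 Values are ratios of treated (T) to vehicle-control (C) measurements of survival or tumor size in tumor-bearing mice.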

[1] = dose: 100.0 mg/kg/injection, schedule: Q01DX009 (ip), vehicle: Klucel (hydroxypropylcellulose) (HPC)
[2] = dose: 200.0 mg/kg/injection, schedule: Q01DX009 (ip), vehicle: Klucel (hydroxypropylcellulose) (HPC)
[3] = dose: 400.0 mg/kg/injection, schedule: Q01DX009 (ip), vehicle: Klucel (hydroxypropylcellulose) (HPC)
[4] = dose: 12.5 mg/kg/injection, schedule: Q01DX009 (ip), vehicle: saline with Tween-80
[5] = dose: 25.0 mg/kg/injection, schedule: Q01DX009 (ip), vehicle: saline with Tween-80
[6] = dose: 50.0 mg/kg/injection, schedule: Q01DX009 (ip), vehicle: saline with Tween-80
[7] = dose: 100.0 mg/kg/injection, schedule: Q01DX009 (ip), vehicle: saline with Tween-80
[8] = dose: 200.0 mg/kg/injection, schedule: Q01DX009 (ip), vehicle: saline with Tween-80
[9] = dose: 1.25 mg/kg/injection, schedule: Q01DX009 (ip), vehicle: Klucel (hydroxypropylcellulose) (HPC)
[10] = dose: 2.5 mg/kg/injection, schedule: Q01DX009 (ip), vehicle: Klucel (hydroxypropylcellulose) (HPC)
[11] = dose: 5.0 mg/kg/injection, schedule: Q01DX009 (ip), vehicle: Klucel (hydroxypropylcellulose) (HPC)
[12] = dose: 10.0 mg/kg/injection, schedule: Q01DX009 (ip), vehicle: Klucel (hydroxypropylcellulose) (HPC)
[13] = dose: 20.0 mg/kg/injection, schedule: Q01DX009 (ip), vehicle: Klucel (hydroxypropylcellulose) (HPC)
[14] = dose: 50.0 mg/kg/injection, schedule: Q01DX009 (ip), vehicle: carboxymethylcellulose (CMC)
[15] = dose: 100.0 mg/kg/injection, schedule: Q01DX009 (ip), vehicle: carboxymethylcellulose (CMC)

In the case of `CSC(=C[N+](=O)[O-])SC`, the T/C (dose: 1.56 mg/kg/injection, schedule: Q01DX009 (ip), vehicle: water) is reported as 108 % of control, the T/C (dose: 3.13 mg/kg/injection, schedule: Q01DX009 (ip), vehicle: water) is reported as 91 % of control and the T/C (dose: 6.25 mg/kg/injection, schedule: Q01DX009 (ip), vehicle: water) is reported as 95 % of control. The T/C (dose: 12.5 mg/kg/injection, schedule: Q01DX009 (ip), vehicle: water) was 99 % of control and the T/C (dose: 25.0 mg/kg/injection, schedule: Q01DX009 (ip), vehicle: water) was 89 % of control.
`Cc1ccc(CCCC(=O)O)c(C)c1` was tested, and the T/C [1] was 104 % of control, the T/C [2] was 96 % of control and the T/C [3] was 97 % of control.
With `Cc1ccc2c(C)c3c(ccc4ccccc43)c[n+]2c1` the T/C (dose: 1.25 mg/kg/injection, schedule: Q01DX009 (ip), vehicle: saline) was 100 % of control, the T/C (dose: 2.5 mg/kg/injection, schedule: Q01DX009 (ip), vehicle: saline with Tween-80) was 95 % of control and the T/C (dose: 2.5 mg/kg/injection, schedule: Q01DX009 (ip), vehicle: saline) was 100 % of control. The T/C (dose: 5.0 mg/kg/injection, schedule: Q01DX009 (ip), vehicle: saline with Tween-80) was 95 % of control, the T/C (dose: 5.0 mg/kg/injection, schedule: Q01DX009 (ip), vehicle: saline) was 100 % of control and the T/C (dose: 10.0 mg/kg/injection, schedule: Q01DX009 (ip), vehicle: saline) was 105 % of control.
In the case of `CCCC[P+](CCCC)(CCCC)C(C)C`, the T/C [4] is reported as 106 % of control and the T/C [5] is reported as 104 % of control.
With `C=C1C(=O)OC2/C=C(\CO)C(OC(C)=O)CC(O)/C(C)=C/C(OC(=O)C(C)CC)C12` (stereo unspecified) the T/C (dose: 1.56 mg/kg/injection, schedule: Q01DX009 (ip), vehicle: Klucel (hydroxypropylcellulose) (HPC)) was 108 % of control, the T/C (dose: 3.13 mg/kg/injection, schedule: Q01DX009 (ip), vehicle: Klucel (hydroxypropylcellulose) (HPC)) was 101 % of control and the T/C (dose: 6.25 mg/kg/injection, schedule: Q01DX009 (ip), vehicle: Klucel (hydroxypropylcellulose) (HPC)) was 109 % of control.
In the case of `CCOC(=O)C(=O)CC(=O)/C=C/c1ccccc1`, the T/C [6] is reported as 94 % of control, the T/C [7] is reported as 97 % of control and the T/C [8] is reported as 97 % of control.
For `Cc1cc([N+](=O)[O-])c(N)c([N+](=O)[O-])c1`, the T/C [1] was 100 % of control, the T/C [2] was 93 % of control and the T/C [3] was 100 % of control.
With `C[C@]12CC[C@H](O)C[C@@]1(O)CC[C@@H]1[C@@H]2CC[C@]2(C)[C@@H](c3ccc(=O)oc3)CC[C@]12O` the T/C [9] was 94 % of control, the T/C [10] was 92 % of control and the T/C [11] was 92 % of control. The T/C [12] was 94 % of control, the T/C [4] was 96 % of control and the T/C [13] was 94 % of control. For the same compound, the T/C [5] was 94 % of control and the T/C [6] was 92 % of control.
With `COc1ccc(Cl)cc1NC(=O)Nc1ccc(Cl)c(Cl)c1` the T/C (dose: 18.75 mg/kg/injection, schedule: Q01DX009 (ip), vehicle: Klucel (hydroxypropylcellulose) (HPC)) was 96 % of control, the T/C (dose: 37.5 mg/kg/injection, schedule: Q01DX009 (ip), vehicle: Klucel (hydroxypropylcellulose) (HPC)) was 95 % of control and the T/C (dose: 75.0 mg/kg/injection, schedule: Q01DX009 (ip), vehicle: Klucel (hydroxypropylcellulose) (HPC)) was 90 % of control.
In the case of `NC(=S)N/N=C/c1ccc(C(F)(F)F)cn1`, the T/C (dose: 8.8 mg/kg/injection, schedule: Q01DX009 (ip), vehicle: Klucel (hydroxypropylcellulose) (HPC)) is reported as 106 % of control, the T/C (dose: 13.3 mg/kg/injection, schedule: Q01DX009 (ip), vehicle: Klucel (hydroxypropylcellulose) (HPC)) is reported as 108 % of control and the T/C [13] is reported as 109 % of control.
`CC(=O)CC(=O)Nc1ncccc1C` was tested, and the T/C (dose: 25.0 mg/kg/injection, schedule: Q01DX009 (ip), vehicle: carboxymethylcellulose (CMC)) was 111 % of control, the T/C [14] was 106 % of control and the T/C [15] was 107 % of control.
For `CCOc1ccccc1NC(=O)Nc1ccccc1OC`, the T/C [1] was 86 % of control, the T/C [2] was 98 % of control and the T/C [3] was 89 % of control.
In the case of `O=S(=O)(c1ccccc1)N1CN2CCN(C2)C1`, the T/C [4] is reported as 89 % of control, the T/C [5] is reported as 98 % of control and the T/C [6] is reported as 99 % of control. For the same compound, the T/C [7] was 100 % of control and the T/C [8] was 103 % of control.
For `O=C(O)CCC(=O)O`, the T/C (dose: 10.0 mg/kg/injection, schedule: Q01DX009 (ip), vehicle: water) was 101 % of control [middle of 4 runs], the T/C (dose: 20.0 mg/kg/injection, schedule: Q01DX009 (ip), vehicle: water) was 102 % of control [middle of 4 runs] and the T/C (dose: 40.0 mg/kg/injection, schedule: Q01DX009 (ip), vehicle: water) was 101 % of control and 119 % of control and 98 % of control. For the same compound, the T/C (dose: 80.0 mg/kg/injection, schedule: Q01DX009 (ip), vehicle: water) was 93 % of control and 100 % of control and 104 % of control, the T/C (dose: 160.0 mg/kg/injection, schedule: Q01DX009 (ip), vehicle: water) was 88 % of control and 94 % of control and 114 % of control and the T/C (dose: 320.0 mg/kg/injection, schedule: Q01DX009 (ip), vehicle: water) was 106 % of control.
`CCOC(=O)c1c(N)[nH]c(SSc2[nH]c(N)c(C(=O)OCC)c2C(=O)OCC)c1C(=O)OCC` was tested, and the T/C (dose: 75.0 mg/kg/injection, schedule: Q01DX009 (ip), vehicle: saline) was 89 % of control and the T/C (dose: 300.0 mg/kg/injection, schedule: Q01DX009 (ip), vehicle: saline) was 97 % of control.
With `CCC(C)C(=O)OC1C(=O)OC2CC3C(C)=CC(=O)C(O)C3(C)C3C4(O)OCC23C1C(C)C4O` (stereo unspecified) the T/C (dose: 1.4 mg/kg/injection, schedule: Q01DX009 (ip), vehicle: saline) was 157 % of control and the T/C (dose: 2.8 mg/kg/injection, schedule: Q01DX009 (ip), vehicle: saline with Tween-80) was 153 % of control.
For `Nc1nc(=S)c2[nH]cnc2[nH]1`, the T/C (dose: 0.25 mg/kg/injection, schedule: Q01DX009 (ip), vehicle: saline sonified) was 100 % of control, the T/C (dose: 0.25 mg/kg/injection, schedule: Q01DX009 (ip), vehicle: suspension in saline) was 109 % of control and the T/C (dose: 0.5 mg/kg/injection, schedule: Q01DX009 (ip), vehicle: saline sonified) was 112 % of control and 115 % of control. For the same compound, the T/C (dose: 0.5 mg/kg/injection, schedule: Q01DX009 (ip), vehicle: suspension in saline) was 120 % of control, the T/C (dose: 1.0 mg/kg/injection, schedule: Q01DX009 (ip), vehicle: saline sonified) was 100 % of control and the T/C (dose: 1.0 mg/kg/injection, schedule: Q01DX009 (ip), vehicle: suspension in saline) was 105 % of control. For the same compound, the T/C (dose: 2.0 mg/kg/injection, schedule: Q01DX009 (ip), vehicle: saline sonified) was 95 % of control and 105 % of control, the T/C (dose: 2.0 mg/kg/injection, schedule: Q01DX009 (ip), vehicle: saline with Tween-80) was 111 % of control and the T/C (dose: 2.0 mg/kg/injection, schedule: Q01DX009 (ip), vehicle: suspension in saline) was 107 % of control.
With `CCOCCN1CCN(CCCN2c3ccccc3Sc3ccc(C(F)(F)F)cc32)CC1` the T/C (dose: 0.09 mg/kg/injection, schedule: Q01DX009 (ip), vehicle: water) was 105 % of control, the T/C (dose: 0.19 mg/kg/injection, schedule: Q01DX009 (ip), vehicle: water) was 113 % of control and the T/C (dose: 0.39 mg/kg/injection, schedule: Q01DX009 (ip), vehicle: water) was 100 % of control.
With `CC(C)=CCC(O)C1=CC(=O)c2c(O)ccc(O)c2C1=O` (stereo unspecified) the T/C [9] was 107 % of control, the T/C [10] was 102 % of control and the T/C [11] was 92 % of control. The T/C [12] was 87 % of control.
With `Oc1ccc(/C=N\N=C\c2ccc(O)cc2)cc1` the T/C [7] was 95 % of control and the T/C [8] was 90 % of control.
For `Cc1cc(Cl)ccc1NC(=O)c1ccc(Cl)cc1Cl`, the T/C (dose: 100.0 mg/kg/injection, schedule: Q04DX003 (ip), vehicle: Klucel (hydroxypropylcellulose) (HPC)) was 100 % of control, the T/C (dose: 200.0 mg/kg/injection, schedule: Q04DX003 (ip), vehicle: Klucel (hydroxypropylcellulose) (HPC)) was 97 % of control and the T/C (dose: 400.0 mg/kg/injection, schedule: Q04DX003 (ip), vehicle: Klucel (hydroxypropylcellulose) (HPC)) was 97 % of control.
`CCC(=O)/C=C/C1C(C)=CCCC1(C)C` (stereo unspecified) was tested, and the T/C [6] was 104 % of control and the T/C [7] was 102 % of control.
With `CCOC(=O)CCCc1ccc(N=NN(C)C)cc1` the T/C (dose: 1.56 mg/kg/injection, schedule: Q01DX009 (ip), vehicle: saline with Tween-80) was 102 % of control, the T/C (dose: 3.13 mg/kg/injection, schedule: Q01DX009 (ip), vehicle: saline with Tween-80) was 105 % of control and the T/C (dose: 6.25 mg/kg/injection, schedule: Q01DX009 (ip), vehicle: saline with Tween-80) was 100 % of control.
`COP12(OCCO1)SC(C(F)(F)F)=C(C(F)(F)F)S2` was tested, and the T/C [4] was 100 % of control and the T/C [5] was 104 % of control.
In the case of `NCCc1ccc(S(=O)(=O)O)cc1[N+](=O)[O-]`, the T/C [14] is reported as 96 % of control, the T/C [15] is reported as 86 % of control and the T/C (dose: 200.0 mg/kg/injection, schedule: Q01DX009 (ip), vehicle: carboxymethylcellulose (CMC)) is reported as 89 % of control.

— PubChem BioAssay AID192 (DTP/NCI, 2004)
